Test results reported in US20250230193A1, “CYCLIC COMPOUND HAVING SELECTIVE KRAS INHIBITORY EFFECT ON HRAS AND NRAS” (CHUGAI SEIYAKU KABUSHIKI KAISHA, priority 2022, published 2025).

Experiments:
[1] = target: GDP-bound HRAS wild-type protein (Homo sapiens, UniProt P01112); experiment: Binding to HRAS by surface plasmon resonance (SPR), Single Cycle Kinetics; conditions: KD ratio HRAS/KRAS, class symbols
[2] = target: GDP-bound NRAS wild-type protein (Homo sapiens, UniProt P01111); experiment: Binding to NRAS by surface plasmon resonance (SPR), Single Cycle Kinetics; conditions: KD ratio NRAS/KRAS, class symbols
GDP-bound NRAS wild-type protein, sequence (P01111 whole entry): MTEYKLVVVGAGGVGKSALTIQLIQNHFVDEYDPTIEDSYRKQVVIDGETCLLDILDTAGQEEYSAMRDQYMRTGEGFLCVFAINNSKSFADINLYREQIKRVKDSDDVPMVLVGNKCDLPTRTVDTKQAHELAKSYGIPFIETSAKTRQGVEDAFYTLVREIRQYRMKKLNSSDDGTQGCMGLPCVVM

GDP-bound HRAS wild-type protein, sequence (P01112 whole entry): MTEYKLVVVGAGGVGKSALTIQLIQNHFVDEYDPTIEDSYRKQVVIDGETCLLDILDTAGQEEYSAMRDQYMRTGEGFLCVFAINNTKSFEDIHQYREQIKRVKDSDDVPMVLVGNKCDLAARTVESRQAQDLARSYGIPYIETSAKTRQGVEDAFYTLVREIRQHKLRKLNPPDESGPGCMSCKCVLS

Structure (SMILES): CCC(CC)[C@H]1C(=O)N(C)[C@H](C(=O)N(C)C)CC(=O)N(C)[C@@H](COC)C(=O)N[C@@H]([C@@H](C)CC)C(=O)N(C)CC(=O)N(C)[C@H]2C/C=C\CCN(C2=O)[C@@H](Cc2ccc(C(F)F)cc2)C(=O)N(C)CC(=O)N[C@@H](CCc2ccc(Cl)c(Cl)c2)C(=O)N2C[C@H](OC3CCCC3)C[C@H]2C(=O)NC2(CC(C)(C)C2)C(=O)N1C [PP2649]
- HRAS/KRAS (ratio of KD value with respect to GDP-bound HRAS wild-type protein to KD value with respect to KRAS) [1]: A (a compound having 10 or more and less than 20 is denoted as A)
- NRAS/KRAS (ratio of KD value with respect to GDP-bound NRAS wild-type protein to KD value with respect to KRAS) [2]: AA (a compound having 20 or more is denoted as AA)

Structure (SMILES): CCC(CC)[C@H]1C(=O)N(C)[C@H](C(=O)N(C)C)CC(=O)N(C)[C@@H](COC)C(=O)N[C@@H]([C@@H](C)CC)C(=O)N2CCC[C@H]2C(=O)N(C)[C@H]2C/C=C\CCN(C2=O)[C@@H](Cc2ccc(C(F)(F)F)cc2)C(=O)N(C)CC(=O)N[C@@H](CCc2ccc(Cl)c(Cl)c2)C(=O)N2C[C@H](OC3CCCC3)C[C@H]2C(=O)NC2(CC(C)(C)C2)C(=O)N1C [PP2651]
- HRAS/KRAS (ratio of KD value with respect to GDP-bound HRAS wild-type protein to KD value with respect to KRAS) [1]: A (a compound having 10 or more and less than 20 is denoted as A)
- NRAS/KRAS (ratio of KD value with respect to GDP-bound NRAS wild-type protein to KD value with respect to KRAS) [2]: AA (a compound having 20 or more is denoted as AA)

Structure (SMILES): CCC(CC)[C@H]1C(=O)N(C)[C@H](C(=O)N(C)C)CC(=O)N(C)[C@@H](COC)C(=O)N[C@@H]([C@@H](C)CC)C(=O)N2CCC[C@H]2C(=O)N(C)[C@H]2C/C=C\CCN(C2=O)[C@@H](Cc2ccc(C(F)F)cc2)C(=O)N(C)CC(=O)N[C@@H](CCc2ccc(Cl)c(Cl)c2)C(=O)N2C[C@H](OC3CCCC3)C[C@H]2C(=O)NC2(CC(C)(C)C2)C(=O)N1C [PP2652]
- HRAS/KRAS (ratio of KD value with respect to GDP-bound HRAS wild-type protein to KD value with respect to KRAS) [1]: A (a compound having 10 or more and less than 20 is denoted as A)
- NRAS/KRAS (ratio of KD value with respect to GDP-bound NRAS wild-type protein to KD value with respect to KRAS) [2]: AA (a compound having 20 or more is denoted as AA)

Structure (SMILES): CC[C@H](C)[C@@H]1NC(=O)[C@H](COC)N(C)C(=O)C[C@@H](C(=O)N(C)C)N(C)C(=O)[C@H](C2CCCCC2)N(C)C(=O)C2(CC(C)(C)C2)NC(=O)[C@@H]2C[C@@H](OC(C)C)CN2C(=O)[C@H](CCc2cc(F)c(C(F)(F)F)c(F)c2)NC(=O)CN(C)C(=O)[C@H](Cc2ccc(C(F)(F)F)cc2)N2CC/C=C\C[C@@H](C2=O)N(C)C(=O)CN(C)C1=O [PP2654]
- HRAS/KRAS (ratio of KD value with respect to GDP-bound HRAS wild-type protein to KD value with respect to KRAS) [1]: A (a compound having 10 or more and less than 20 is denoted as A)
- NRAS/KRAS (ratio of KD value with respect to GDP-bound NRAS wild-type protein to KD value with respect to KRAS) [2]: A (a compound having 10 or more and less than 20 is denoted as A)

Structure (SMILES): CC[C@H](C)[C@@H]1NC(=O)[C@H](COC)N(C)C(=O)C[C@@H](C(=O)N(C)C)N(C)C(=O)[C@H](C2CCCCC2)N(C)C(=O)C2(CC(C)(C)C2)NC(=O)[C@@H]2C[C@@H](OC3CCC3)CN2C(=O)[C@H](CCc2cc(F)c(C(F)(F)F)c(F)c2)NC(=O)CN(C)C(=O)[C@H](Cc2ccc(C(F)(F)F)cc2)N2CC/C=C\C[C@@H](C2=O)N(C)C(=O)CN(C)C1=O [PP2655]
- HRAS/KRAS (ratio of KD value with respect to GDP-bound HRAS wild-type protein to KD value with respect to KRAS) [1]: A (a compound having 10 or more and less than 20 is denoted as A)
- NRAS/KRAS (ratio of KD value with respect to GDP-bound NRAS wild-type protein to KD value with respect to KRAS) [2]: AA (a compound having 20 or more is denoted as AA)

Structure (SMILES): CC[C@H](C)[C@@H]1NC(=O)[C@H](COC)N(C)C(=O)C[C@@H](C(=O)N(C)C)N(C)C(=O)[C@H](C2CCCCC2)N(C)C(=O)C2(CC(C)(C)C2)NC(=O)[C@@H]2C[C@@H](OC3CCCC3)CN2C(=O)[C@H](CCc2cc(F)c(C(F)(F)F)c(F)c2)NC(=O)CN(C)C(=O)[C@H](Cc2ccc(C(F)(F)F)cc2)N2CC/C=C\C[C@@H](C2=O)N(C)C(=O)CN(C)C1=O [PP2656]
- HRAS/KRAS (ratio of KD value with respect to GDP-bound HRAS wild-type protein to KD value with respect to KRAS) [1]: B (a compound having 3 or more and less than 10 is denoted as B)
- NRAS/KRAS (ratio of KD value with respect to GDP-bound NRAS wild-type protein to KD value with respect to KRAS) [2]: A (a compound having 10 or more and less than 20 is denoted as A)

Structure (SMILES): CCO[C@@H]1C[C@H]2C(=O)NC3(CC(C)(C)C3)C(=O)N(C)[C@@H](C3CCCCC3)C(=O)N(C)[C@H](C(=O)N(C)C)CC(=O)N(C)[C@@H](COC)C(=O)N[C@@H]([C@@H](C)CC)C(=O)N(C3CC3)CC(=O)N(C)[C@H]3C/C=C\CCN(C3=O)[C@@H](Cc3ccc(C(F)(F)F)cc3)C(=O)N(C)CC(=O)N[C@@H](CCc3cc(F)c(C(F)(F)F)c(F)c3)C(=O)N2C1 [PP2657]
- HRAS/KRAS (ratio of KD value with respect to GDP-bound HRAS wild-type protein to KD value with respect to KRAS) [1]: A (a compound having 10 or more and less than 20 is denoted as A)
- NRAS/KRAS (ratio of KD value with respect to GDP-bound NRAS wild-type protein to KD value with respect to KRAS) [2]: A (a compound having 10 or more and less than 20 is denoted as A)

Structure (SMILES): CCO[C@@H]1C[C@H]2C(=O)NC3(CC(C)(C)C3)C(=O)N(C)[C@@H](C3CCCCC3)C(=O)N(C)[C@H](C(=O)N(C)C)CC(=O)N(C)[C@@H](COC)C(=O)N[C@@H]([C@@H](C)CC)C(=O)N(C)CC(=O)N(C)[C@H]3C/C=C\CCN(C3=O)[C@@H](Cc3ccc(C)cc3)C(=O)N(C)CC(=O)N[C@@H](CCc3cc(F)c(C(F)(F)F)c(F)c3)C(=O)N2C1 [PP2659]
- HRAS/KRAS (ratio of KD value with respect to GDP-bound HRAS wild-type protein to KD value with respect to KRAS) [1]: A (a compound having 10 or more and less than 20 is denoted as A)
- NRAS/KRAS (ratio of KD value with respect to GDP-bound NRAS wild-type protein to KD value with respect to KRAS) [2]: A (a compound having 10 or more and less than 20 is denoted as A)

Structure (SMILES): CC[C@H](C)[C@@H]1NC(=O)[C@H](COC)N(C)C(=O)C[C@@H](C(=O)N(C)C)N(C)C(=O)[C@H](C2CCCCC2)N(C)C(=O)C2(CC(C)(C)C2)NC(=O)[C@@H]2C[C@@H](OC(C)C)CN2C(=O)[C@H](CCc2cc(F)c(C(F)(F)F)c(F)c2)NC(=O)CN(C)C(=O)[C@H](Cc2ccc(C)cc2)N2CC/C=C\C[C@@H](C2=O)N(C)C(=O)CN(C)C1=O [PP2660]
- HRAS/KRAS (ratio of KD value with respect to GDP-bound HRAS wild-type protein to KD value with respect to KRAS) [1]: A (a compound having 10 or more and less than 20 is denoted as A)
- NRAS/KRAS (ratio of KD value with respect to GDP-bound NRAS wild-type protein to KD value with respect to KRAS) [2]: A (a compound having 10 or more and less than 20 is denoted as A)

Structure (SMILES): CCO[C@@H]1C[C@H]2C(=O)NC3(CC(C)(C)C3)C(=O)N(C)[C@@H](C3CCCCC3)C(=O)N(C)[C@H](C(=O)N(C)C)CC(=O)N(C)[C@@H](COC)C(=O)N[C@@H]([C@@H](C)CC)C(=O)N(C)CC(=O)N(C)[C@H]3C/C=C\CCN(C3=O)[C@@H](Cc3ccc(C(F)(F)F)cc3)C(=O)N(C)CC(=O)N[C@@H](CCc3ccc(Cl)c(Cl)c3)C(=O)N2C1 [PP2661]
- HRAS/KRAS (ratio of KD value with respect to GDP-bound HRAS wild-type protein to KD value with respect to KRAS) [1]: A (a compound having 10 or more and less than 20 is denoted as A)
- NRAS/KRAS (ratio of KD value with respect to GDP-bound NRAS wild-type protein to KD value with respect to KRAS) [2]: AA (a compound having 20 or more is denoted as AA)

Structure (SMILES): CC[C@H](C)[C@@H]1NC(=O)[C@H](COC)N(C)C(=O)C[C@@H](C(=O)N(C)C)N(C)C(=O)[C@H](C2CCCCC2)N(C)C(=O)C2(CC(C)(C)C2)NC(=O)[C@@H]2C[C@@H](OC(C)C)CN2C(=O)[C@H](CCc2ccc(Cl)c(Cl)c2)NC(=O)CN(C)C(=O)[C@H](Cc2ccc(C(F)(F)F)cc2)N2CC/C=C\C[C@@H](C2=O)N(C)C(=O)CN(C)C1=O [PP2662]
- HRAS/KRAS (ratio of KD value with respect to GDP-bound HRAS wild-type protein to KD value with respect to KRAS) [1]: A (a compound having 10 or more and less than 20 is denoted as A)
- NRAS/KRAS (ratio of KD value with respect to GDP-bound NRAS wild-type protein to KD value with respect to KRAS) [2]: AA (a compound having 20 or more is denoted as AA)

Structure (SMILES): CC[C@H](C)[C@@H]1NC(=O)[C@H](COC)N(C)C(=O)C[C@@H](C(=O)N2CCCCC2)N(C)C(=O)[C@H](C2CCCC2)N(C)C(=O)C2(CC(C)(C)C2)NC(=O)[C@@H]2C[C@@H](OC3CCC3)CN2C(=O)[C@H](CCc2cc(F)c(C(F)(F)F)c(F)c2)NC(=O)CN(C)C(=O)[C@H](Cc2ccc(C(F)(F)F)cc2)N2CC/C=C\C[C@@H](C2=O)N(C)C(=O)CN(C)C1=O [PP2664]
- HRAS/KRAS (ratio of KD value with respect to GDP-bound HRAS wild-type protein to KD value with respect to KRAS) [1]: B (a compound having 3 or more and less than 10 is denoted as B)
- NRAS/KRAS (ratio of KD value with respect to GDP-bound NRAS wild-type protein to KD value with respect to KRAS) [2]: A (a compound having 10 or more and less than 20 is denoted as A)

Structure (SMILES): CC[C@H](C)[C@@H]1NC(=O)[C@H](COC)N(C)C(=O)C[C@@H](C(=O)N2CCCCC2)N(C)C(=O)[C@H](C2CCCC2)N(C)C(=O)C2(CC(C)(C)C2)NC(=O)[C@@H]2C[C@@H](OC3CCCC3)CN2C(=O)[C@H](CCc2cc(F)c(C(F)(F)F)c(F)c2)NC(=O)CN(C)C(=O)[C@H](Cc2ccc(C(F)(F)F)cc2)N2CC/C=C\C[C@@H](C2=O)N(C)C(=O)CN(C)C1=O [PP2665]
- HRAS/KRAS (ratio of KD value with respect to GDP-bound HRAS wild-type protein to KD value with respect to KRAS) [1]: A (a compound having 10 or more and less than 20 is denoted as A)
- NRAS/KRAS (ratio of KD value with respect to GDP-bound NRAS wild-type protein to KD value with respect to KRAS) [2]: A (a compound having 10 or more and less than 20 is denoted as A)

Structure (SMILES): CCO[C@@H]1C[C@H]2C(=O)NC3(CC(C)(C)C3)C(=O)N(C)[C@@H](C3CCCC3)C(=O)N(C)[C@H](C(=O)N3CCCCC3)CC(=O)N(C)[C@@H](COC)C(=O)N[C@@H]([C@@H](C)CC)C(=O)N(C3CC3)CC(=O)N(C)[C@H]3C/C=C\CCN(C3=O)[C@@H](Cc3ccc(C(F)(F)F)cc3)C(=O)N(C)CC(=O)N[C@@H](CCc3cc(F)c(C(F)(F)F)c(F)c3)C(=O)N2C1 [PP2666]
- HRAS/KRAS (ratio of KD value with respect to GDP-bound HRAS wild-type protein to KD value with respect to KRAS) [1]: AA (a compound having 20 or more is denoted as AA)
- NRAS/KRAS (ratio of KD value with respect to GDP-bound NRAS wild-type protein to KD value with respect to KRAS) [2]: AA (a compound having 20 or more is denoted as AA)

Structure (SMILES): CC[C@H](C)[C@@H]1NC(=O)[C@H](COC)N(C)C(=O)C[C@@H](C(=O)N2CCCCC2)N(C)C(=O)[C@H](C2CCCC2)N(C)C(=O)C2(CC(C)(C)C2)NC(=O)[C@@H]2C[C@@H](OC(C)C)CN2C(=O)[C@H](CCc2cc(F)c(C(F)(F)F)c(F)c2)NC(=O)CN(C)C(=O)[C@H](Cc2ccc(C(F)(F)F)cc2)N2CC/C=C\C[C@@H](C2=O)N(C)C(=O)CN(C2CC2)C1=O [PP2667]
- HRAS/KRAS (ratio of KD value with respect to GDP-bound HRAS wild-type protein to KD value with respect to KRAS) [1]: A (a compound having 10 or more and less than 20 is denoted as A)
- NRAS/KRAS (ratio of KD value with respect to GDP-bound NRAS wild-type protein to KD value with respect to KRAS) [2]: A (a compound having 10 or more and less than 20 is denoted as A)
